Laboratory results as given in patent US20120004405A1, “COMPOUNDS HAVING ACTIVITY IN CORRECTING MUTANT CFTR CELLULAR PROCESSING” (priority 2008, published 2012).
“Also recorded” adds a separate entry of the source.

Assays:
ΔF508-CFTR [1] = molecular target: T1, ΔF508-CFTR (Homo sapiens, UniProt P13569, DEL508-508); test: Iodide efflux from ΔF508-CFTR epithelial cells; assay type: cell-based; details: for iodide efflux from ΔF508-CFTR epithelial cells: iodide-loaded cells, compound added at time point 0, iodide sensitive electrode
T1 construct: Human epithelial cells containing wildtype (A) or ΔF508-CFTR (B); endogenous in cells; host or cells: CFBE14o- human epithelial cells (provided by Dr. D. C. Gruenert)
Protocol: Iodide efflux experiments were performed as described. Briefly, Cells (80-90% confluent) were incubated for 1 h in a loading buffer containing 136 mM NaI, 3 mM KNO3, 2 mM Ca(NO3)2, 11 mM glucose, and 20 mM Hepes, adjusted to pH 7.4 with NaOH. To remove extracellular iodide, cells were thoroughly washed with efflux buffer (136 mM NaNO3 replacing 136 mM NaI in the loading buffer) and then equilibrated in 2.5 ml efflux buffer for 1 min. The efflux buffer was changed at 1 min intervals over the duration of the experiment. Four minutes after anion substitution, cells were exposed to compound 1D. The amount of iodide in each 2.5 ml sample of efflux buffer was determined using an iodide-selective electrode (HNU Systems Ltd, Warrington, UK). Cells were loaded and experiments performed at room temperature.

nasal epithelium = test: Transepithelial nasal resistance measured on the inventor; assay type: in vivo; details: human
Protocol: The effect of compound 1D was evaluated on the inventor of the present application by measurement of the transepithelial nasal resistance. This is a standard protocol for testing pharmaceutically active compounds on humans, (http://central.igc.gulbenkian.pt/cftr/vr/e/schuler_basic_protocol_for_measurement_of_transepithelial_nasal_potential_difference.pdf) (see also the results of FIG. 9).
The nasal epithelium was equilibrated with isotonic (0.9%) NaCl, 2 mM CaCl2. […] To determine the maximal possible potential differences in this experiment, the solution was changed to isotonic NaCl, 2 mM CaCl2 containing 10 μM amiloride that is known to close Na+ channels. […] After equilibration, the solution was changed to low salt with 0.09% NaCl, 0.2 mM CaCl2 containing 10 μM isoprenalol.

hyaluronan exporter MRP5 = molecular target: T2, hyaluronan exporter MRP5 (Homo sapiens, UniProt O15440); test: Determination of hyaluronan export from human fibroblasts (ELISA of culture medium); assay type: cell-based; details: incubated two days with increasing concentrations; hyaluronan in culture supernatant
T2 construct: tested on human fibroblasts cultures for their influence on hyaluronan exporter MRP5; endogenous in cells; host or cells: human fibroblast cultures
Protocol: (§1) The cells were incubated for 24 hours at 37° C., the media were replaced with fresh media and after additional 24 hours aliquots (5 and 20 μl) of the culture medium were used for measurement of the hyaluronan concentration in the cell culture medium by an ELISA. The wells of a 96 well Covalink-NH-microtiter plate (NUNC) were coated with 100 μl of a mixture of […] of hyaluronan (Healon®), 9.2 μg/ml of N-Hydroxysuccin-imide-3-sulfonic acid and 615 μl/ml of 1-ethyl-3-(3-dimethylaminopropyl)-carbodiimide for 2 hours at room temperature and overnight at 4° C. The wells were washed three times with 2 M NaCl, 41 mM MgSO4, 0.05% Tween-20 in 50 mM phosphate buffered saline pH 7.2 (buffer A) and once with 2 M NaCl, 41 mM MgSO4, in phosphate buffered saline pH 7.2. Additional binding sites were blocked by incubation with 300 μl of 0.5% bovine serum albumin in phosphate buffered saline for 30 min at 37° C. Calibration of the assay was performed with standard concentrations of hyaluronan ranging from 15 ng/ml to 6000 ng/ml in equal volumes of culture medium as used for measurement of the cellular supernatants. […] The adsorption was read at 490 nm. The concentrations in the samples were calculated from a logarithmic regression curve of the hyaluronan standard solutions.

CFTR = molecular target: T3, CFTR (Mus musculus, UniProt P26361); test: Hyaluronan export through CFTR in a mouse fibroblasts cell line; assay type: cell-based
T3 construct: endogenous in cells
Protocol: as §1

wildtype CFTR = molecular target: T4, wildtype CFTR (Homo sapiens, UniProt P13569); test: Western blotting of cell surface expressed CFTR, wildtype epithelial cells; assay type: cell-based; details: increasing concentration of compound
T4 construct: Human epithelial cells containing wildtype CFTR (16HBE14o-); endogenous in cells; host or cells: 16HBE14o- human epithelial cells (provided by Dr. D. C. Gruenert)
Protocol: (§2) Human epithelial cells containing wildtype CFTR (16HBE14o-) and the mutant cell line CFBE14o- were kindly provided by Dr. D. C. Gruenert. They were grown in suspension culture in Dulbeccós medium supplemented with streptomycin/penicillin (100 units of each/ml) and 10% foetal calf serum.
(§3) The cell pellets were solubilized by vortexing in buffer (Tris-HCl 0.06 M; 2% SDS, 10% glycerol, 0.1M dithiothreitol, 0.1% bromophenol-blue and the protease inhibitor cocktail, pH 6.8). Following centrifugation (2 min, 8.000 g) samples of the supernatant were separated on 10% poly-acrylamide slabgels. Proteins were subsequently electroblotted onto nitrocellulose paper in 0.025 M Tris, 0.192 M glycine, 20% methanol. The blots were incubated at 4° C. with 0.02M Tris-HCl, 0.15M NaCl, 0.1% Tween20, pH7.5 followed by overnight incubation at 4° C. with a 1:500 dilution of primary anti-CFTR antibody in 0.02M Tris-HCl, 0.15M NaCl, 0.1% Tween20, pH7.5. Blots were washed three times, incubated with peroxidase-conjugated anti-rabbit IgG for 2 h, and washed four times. Peroxidase activity was detected with […] reagent (ECL kit; Amersham, Braunschweig, Germany) on X-ray film.

ΔF508-CFTR [2] = molecular target: T1, ΔF508-CFTR; test: Western blotting of cell surface expressed CFTR, ΔF508-CFTR epithelial cells; assay type: cell-based
Protocol: as §2, §3

[3] = tested on: wildtype HBE14o- cells (normal CFTR); test: Transepithelial resistance of wildtype HBE14o- epithelial cells; assay type: cell-based, human
[4] = tested on: mutant CFBE14o- cells (ΔF508-CFTR); test: Transepithelial resistance of mutant CFBE14o- epithelial cells; assay type: cell-based, human
Protocol: as §2
A cell monolayer on a thin filter membrane (growth area, 4.2 cm2; pore diameter, 0.4 μm; thickness, 20 μm; Falcon, Heidelberg, Germany) served as a test barrier for the invasive capabilities of malignant cells. When confluent, these cells from a tight epithelial sheet with a high trans-epithelial electrical resistance (TEER), which was measured continuously using a STX-2 electrode (WPI, Sarasota, USA). Permeabilization of the epithelial cell layer (MDCK-C7 cells) due to the invasive activity of the melanoma cells can be determined by trans-epithelial electrical resistance (TEER) measurements, as previously reported [24;25].

[5] = Alamarblue cytotoxicity assay; assay type: cell-based; details: up to concentrations of 400 μM; data not shown
Protocol: In a preferred embodiment, the present invention relates to compounds 1B, 1C, 1D 1F and 1G. […] Compound 1D is particularly preferred.
The cytotoxicity of the drugs was measured as described.

T1 sequence (P13569 with tags, fused parts or gaps DEL508-508): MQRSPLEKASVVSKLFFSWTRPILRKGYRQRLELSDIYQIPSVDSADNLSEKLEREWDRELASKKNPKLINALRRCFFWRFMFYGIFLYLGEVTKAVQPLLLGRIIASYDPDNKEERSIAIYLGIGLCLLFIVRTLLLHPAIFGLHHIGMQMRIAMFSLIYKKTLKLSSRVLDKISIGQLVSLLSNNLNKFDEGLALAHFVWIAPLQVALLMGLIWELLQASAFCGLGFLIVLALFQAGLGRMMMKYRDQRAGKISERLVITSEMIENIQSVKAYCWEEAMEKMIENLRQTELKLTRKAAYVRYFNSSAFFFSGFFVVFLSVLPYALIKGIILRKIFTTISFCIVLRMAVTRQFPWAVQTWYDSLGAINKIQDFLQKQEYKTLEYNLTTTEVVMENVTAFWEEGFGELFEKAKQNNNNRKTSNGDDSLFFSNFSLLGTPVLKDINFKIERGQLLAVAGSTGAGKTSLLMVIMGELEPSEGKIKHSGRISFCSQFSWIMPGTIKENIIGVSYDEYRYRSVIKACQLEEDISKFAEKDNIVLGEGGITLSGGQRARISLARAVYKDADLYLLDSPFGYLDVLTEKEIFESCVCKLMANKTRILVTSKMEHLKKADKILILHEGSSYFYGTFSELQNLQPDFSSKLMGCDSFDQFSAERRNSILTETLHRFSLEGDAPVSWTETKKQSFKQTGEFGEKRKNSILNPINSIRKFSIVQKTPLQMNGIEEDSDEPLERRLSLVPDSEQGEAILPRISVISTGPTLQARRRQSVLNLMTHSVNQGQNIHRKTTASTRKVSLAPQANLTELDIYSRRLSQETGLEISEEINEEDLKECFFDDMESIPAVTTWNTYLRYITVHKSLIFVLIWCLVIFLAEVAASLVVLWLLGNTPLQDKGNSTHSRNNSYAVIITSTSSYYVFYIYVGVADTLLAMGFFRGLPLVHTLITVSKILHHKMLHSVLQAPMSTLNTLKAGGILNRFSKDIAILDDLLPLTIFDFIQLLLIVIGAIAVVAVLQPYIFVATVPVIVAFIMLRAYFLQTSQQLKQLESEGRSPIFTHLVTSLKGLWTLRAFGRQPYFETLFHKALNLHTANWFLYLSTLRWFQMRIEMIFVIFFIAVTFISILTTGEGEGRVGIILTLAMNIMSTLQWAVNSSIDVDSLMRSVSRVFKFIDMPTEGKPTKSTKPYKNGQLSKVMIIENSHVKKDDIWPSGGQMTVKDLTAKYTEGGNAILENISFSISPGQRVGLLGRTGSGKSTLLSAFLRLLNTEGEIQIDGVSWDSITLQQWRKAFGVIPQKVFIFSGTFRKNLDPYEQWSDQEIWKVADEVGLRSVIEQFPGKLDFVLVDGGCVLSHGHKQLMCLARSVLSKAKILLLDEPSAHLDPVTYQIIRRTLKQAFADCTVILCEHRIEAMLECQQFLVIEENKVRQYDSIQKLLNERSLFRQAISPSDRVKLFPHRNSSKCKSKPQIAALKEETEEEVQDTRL
T2 sequence (O15440 whole entry): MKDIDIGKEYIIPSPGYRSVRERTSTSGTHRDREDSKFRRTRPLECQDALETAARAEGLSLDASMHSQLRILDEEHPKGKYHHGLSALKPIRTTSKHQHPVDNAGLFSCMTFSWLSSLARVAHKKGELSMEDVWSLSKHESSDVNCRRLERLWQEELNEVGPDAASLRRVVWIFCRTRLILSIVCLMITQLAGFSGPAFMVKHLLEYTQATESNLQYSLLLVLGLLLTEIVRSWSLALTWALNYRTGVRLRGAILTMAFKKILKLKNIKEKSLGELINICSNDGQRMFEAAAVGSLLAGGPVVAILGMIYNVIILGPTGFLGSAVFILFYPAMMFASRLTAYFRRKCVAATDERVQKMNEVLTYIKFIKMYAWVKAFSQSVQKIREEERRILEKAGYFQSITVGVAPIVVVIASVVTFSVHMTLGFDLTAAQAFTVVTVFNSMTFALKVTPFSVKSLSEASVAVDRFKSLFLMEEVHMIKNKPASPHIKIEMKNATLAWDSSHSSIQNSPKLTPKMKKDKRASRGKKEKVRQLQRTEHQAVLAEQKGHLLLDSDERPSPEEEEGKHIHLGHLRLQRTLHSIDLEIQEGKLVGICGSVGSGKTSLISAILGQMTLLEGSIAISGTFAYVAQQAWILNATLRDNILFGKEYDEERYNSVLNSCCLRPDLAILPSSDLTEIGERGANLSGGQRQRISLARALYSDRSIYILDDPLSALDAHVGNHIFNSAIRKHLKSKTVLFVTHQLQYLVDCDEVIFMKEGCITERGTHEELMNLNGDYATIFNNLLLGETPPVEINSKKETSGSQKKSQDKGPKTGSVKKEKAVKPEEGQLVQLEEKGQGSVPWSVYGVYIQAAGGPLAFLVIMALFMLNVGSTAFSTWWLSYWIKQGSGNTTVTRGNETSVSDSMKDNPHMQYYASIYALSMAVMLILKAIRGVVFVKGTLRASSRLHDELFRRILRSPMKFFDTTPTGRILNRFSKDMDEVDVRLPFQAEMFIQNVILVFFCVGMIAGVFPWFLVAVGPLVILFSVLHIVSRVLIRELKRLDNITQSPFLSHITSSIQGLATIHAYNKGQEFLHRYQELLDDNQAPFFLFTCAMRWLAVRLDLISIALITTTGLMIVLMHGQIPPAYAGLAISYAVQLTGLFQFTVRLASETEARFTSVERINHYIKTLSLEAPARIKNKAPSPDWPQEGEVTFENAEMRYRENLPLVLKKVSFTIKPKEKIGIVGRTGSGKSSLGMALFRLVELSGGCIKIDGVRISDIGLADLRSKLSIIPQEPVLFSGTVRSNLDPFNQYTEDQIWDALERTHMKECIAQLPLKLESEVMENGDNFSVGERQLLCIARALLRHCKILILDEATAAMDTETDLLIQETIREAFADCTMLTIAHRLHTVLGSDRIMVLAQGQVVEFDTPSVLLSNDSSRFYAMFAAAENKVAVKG
T4 sequence (P13569 whole entry): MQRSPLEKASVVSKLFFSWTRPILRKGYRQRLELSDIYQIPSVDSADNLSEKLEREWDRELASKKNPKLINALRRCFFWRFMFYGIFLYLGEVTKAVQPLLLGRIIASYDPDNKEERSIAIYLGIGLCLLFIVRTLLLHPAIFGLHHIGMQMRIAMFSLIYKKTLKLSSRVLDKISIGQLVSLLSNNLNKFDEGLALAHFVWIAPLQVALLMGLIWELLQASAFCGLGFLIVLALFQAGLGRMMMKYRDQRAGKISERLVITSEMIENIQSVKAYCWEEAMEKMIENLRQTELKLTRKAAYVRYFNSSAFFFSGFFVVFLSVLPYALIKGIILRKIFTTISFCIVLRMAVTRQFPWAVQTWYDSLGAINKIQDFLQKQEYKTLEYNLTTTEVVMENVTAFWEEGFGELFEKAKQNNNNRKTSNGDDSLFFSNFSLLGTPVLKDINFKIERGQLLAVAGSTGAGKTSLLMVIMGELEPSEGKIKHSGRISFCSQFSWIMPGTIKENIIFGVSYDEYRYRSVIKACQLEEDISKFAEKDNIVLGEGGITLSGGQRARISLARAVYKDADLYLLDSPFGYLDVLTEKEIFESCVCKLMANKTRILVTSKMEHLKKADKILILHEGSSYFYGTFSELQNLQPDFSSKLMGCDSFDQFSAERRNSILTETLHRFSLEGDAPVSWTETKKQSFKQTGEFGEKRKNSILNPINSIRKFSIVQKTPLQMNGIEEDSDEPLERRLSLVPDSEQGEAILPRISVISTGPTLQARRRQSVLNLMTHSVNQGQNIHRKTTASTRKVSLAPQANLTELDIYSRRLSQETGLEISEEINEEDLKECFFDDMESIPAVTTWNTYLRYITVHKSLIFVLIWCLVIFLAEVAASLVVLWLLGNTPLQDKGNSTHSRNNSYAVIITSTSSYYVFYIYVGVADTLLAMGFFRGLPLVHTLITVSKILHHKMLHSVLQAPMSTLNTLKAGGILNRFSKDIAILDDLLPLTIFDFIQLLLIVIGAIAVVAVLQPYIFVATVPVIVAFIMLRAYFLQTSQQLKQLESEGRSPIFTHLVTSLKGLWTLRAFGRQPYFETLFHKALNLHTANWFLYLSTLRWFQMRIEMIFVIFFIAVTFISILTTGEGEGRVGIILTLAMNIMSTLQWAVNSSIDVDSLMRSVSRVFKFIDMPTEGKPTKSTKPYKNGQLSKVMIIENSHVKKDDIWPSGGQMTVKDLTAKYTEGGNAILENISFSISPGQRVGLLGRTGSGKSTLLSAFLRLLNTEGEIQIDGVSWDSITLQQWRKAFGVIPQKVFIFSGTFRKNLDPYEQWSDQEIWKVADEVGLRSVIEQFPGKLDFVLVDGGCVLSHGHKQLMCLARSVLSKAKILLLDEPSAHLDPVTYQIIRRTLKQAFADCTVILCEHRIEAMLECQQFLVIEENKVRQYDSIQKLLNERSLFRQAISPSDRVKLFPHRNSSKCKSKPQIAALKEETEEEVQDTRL

CC(=O)Nc1c(O)cccc1Oc1ccccc1C(=O)O [Compound 1B, 2-(2-acetamido-3-hydroxyphenoxy)benzoic acid]
iodide efflux from ΔF508-CFTR epithelial cells (ΔF508-CFTR [1]): stimulates iodide efflux

N=C(N)NC(=O)c1nc(Cl)c(N)nc1N [amiloride, reference compound]
transepithelial nasal resistance (nasal epithelium; 10 μM in isotonic NaCl, 2 mM CaCl2): increased to a maximal valued

O=C(O)c1ccc(/C=C2\SC(=S)N(c3cccc(C(F)(F)F)c3)C2=O)cc1 [CFTR172, reference compound]
effect on D4 activation of iodide efflux through F508-CFTR (ΔF508-CFTR [1]; simultaneous addition with D4): reduces the activation

CC(=O)Nc1c(O)cc(O)cc1Oc1ccc(N)cc1C(=O)O [Compound 1D, 2-(2-acetamido-3,5-dihydroxyphenoxy)-5-aminobenzoic acid]
activation of hyaluronan export from human fibroblasts (hyaluronan exporter MRP5): most active; also recorded: most activating | hyaluronan export through CFTR (CFTR): activated | expression of wildtype CFTR on the cell surface (Western blotting) (wildtype CFTR): slightly decreased | concentration at which increase of membrane expression on ΔF508-CFTR epithelial cells was observed (ΔF508-CFTR [2]; Western blotting): 100 µM | expression of ΔF508-CFTR on the cell surface / plasma membrane (Western blotting) (ΔF508-CFTR [2]; human epithelial cells, increasing concentration of compound): recruited to the plasma membrane; also recorded: enhanced; also recorded: restored plasma membrane expression | iodide efflux from ΔF508-CFTR epithelial cells (ΔF508-CFTR [1]): stimulated a sudden burst of iodide efflux | iodide efflux from ΔF508-CFTR epithelial cells (ΔF508-CFTR [1]; listed as D4): channels immediately open | transepithelial resistance of epithelial cells containing normal CFTR, immediate effect ([3]; FIG. 10): drops immediately | TER of normal cells over a period of 90 hours ([3]; FIG. 12): reduce the TER | transepithelial resistance of ΔF508-CFTR epithelial cells over a longer time period ([4]; 100 μM): increase in transepithelial resistance; also recorded: long lasting rescue of ΔF508-CFTR | transepithelial resistance of epithelial cells containing F508-CFTR ([4]; FIG. 10, compared to 8-Bromo-cAMP and control): resistance increases | TER of F508-CFTR cells over a period of 90 hours ([4]; FIG. 12, versus control without any treatment): drops below the control | toxicity (Alamarblue assay) [5]: not toxic | transepithelial nasal resistance (nasal epithelium; 100 μM in isotonic NaCl, 2 mM CaCl2, after a transient increase): decreased below the equilibrating solution | reversibility of the effect on transepithelial nasal resistance (nasal epithelium; wash out): reversible

CC(C)NCC(O)c1ccc(O)c(O)c1 (stereo not shown) [isoprenalol, reference compound]
transepithelial nasal resistance (nasal epithelium; 10 μM in low salt 0.09% NaCl, 0.2 mM CaCl2): maximal drop of the transepithelial resistance
